Laboratory results reported in patent publication US10131652B2, “Pyrimidinyloxy benzene derivatives as herbicides” (E. I. DU PONT DE NEMOURS AND COMPANY, priority 2014, dated 2018).
Like-named read-outs stand apart in the source and are kept apart here.

Columns and labels:
Format in all cases: in vivo
[1] = tested on: large (Lg) crabgrass (Digitaria sanguinalis); experiment: Test B pre-/postemergence plant response; conditions: Digitaria sanguinalis, 240 h, read-out: Plant response rating, Crabgrass, Large; for pest or weed control at 125 g/ha: 125 g ai/ha; for pest or weed control at 500 g/ha: 500 g ai/ha; for pest or weed control at 1000 g/ha: 1000 g ai/ha
Outline: (§1)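 Seeds in loam–sand blend given preemergence soil spray; separately, plants at one- to two-leaf stage (2–10 cm) sprayed postemergence, compounds in non-phytotoxic solvent with surfactant. Injury rated visually versus untreated controls after ~10 days in greenhouse, 0 (no effect) to 100 (complete control).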

[2] = tested on: morningglory (Ipomoea spp.); experiment: Test B pre-/postemergence plant response; conditions: Ipomoea, 240 h, read-out: Plant response rating, Morningglory; for pest or weed control at 125 g/ha: 125 g ai/ha; for pest or weed control at 500 g/ha: 500 g ai/ha; for pest or weed control at 1000 g/ha: 1000 g ai/ha
Outline: as §1

[3] = tested on: velvetleaf (Abutilon theophrasti); experiment: Test B pre-/postemergence plant response; conditions: Abutilon theophrasti, 240 h, read-out: Plant response rating, Velvetleaf; for pest or weed control at 125 g/ha: 125 g ai/ha; for pest or weed control at 500 g/ha: 500 g ai/ha; for pest or weed control at 1000 g/ha: 1000 g ai/ha
Outline: as §1

[4] = tested on: blackgrass (Alopecurus myosuroides); experiment: Test B postemergence plant response
Outline: (§2)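 Weeds grown in loam soil/sand pots were sprayed postemergence at 2 to 10 cm height, one- to two-leaf stage. After approximately 10 days in greenhouse, injury was rated visually against untreated controls on a 0 (no effect) to 100 (complete control) scale; dash means no test result.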

[5] = tested on: galium (catchweed bedstraw, Galium aparine); experiment: Test B postemergence plant response
Outline: as §2

[6] = post-emergence, postemergence, 0 to 100 scale, 0 no effect, 100 complete control
[7] = post-emergence, Postemergence, 0 to 100 scale (0 no effect, 100 complete control)
[8] = pre-emergence, Preemergence, 0 to 100 scale where 0 is no effect and 100 is complete control
[9] = pre-emergence, Preemergence, 0 to 100 scale (0 no effect, 100 complete control)
[10] = 31 g ai/ha, Postemergence, 0 to 100 scale, 0 no effect, 100 complete control
[11] = 125 g ai/ha, postemergence, 0 to 100 scale, 0 no effect, 100 complete control
[12] = Postemergence, 500 g ai/ha, 0 to 100 scale (0 no effect, 100 complete control)

SMILES	pest or weed control at 125 g/ha [1, 6] [%]	pest or weed control at 500 g/ha [1, 7] [%]	pest or weed control at 125 g/ha [1, 8] [%]	pest or weed control at 500 g/ha [1, 9] [%]	pest or weed control at 125 g/ha [2, 6] [%]	pest or weed control at 500 g/ha [2, 7] [%]	pest or weed control at 125 g/ha [2, 8] [%]	pest or weed control at 500 g/ha [2, 9] [%]	pest or weed control at 125 g/ha [3, 6] [%]	pest or weed control at 500 g/ha [3, 7] [%]	pest or weed control at 125 g/ha [3, 8] [%]	pest or weed control at 500 g/ha [3, 9] [%]	pest or weed control at 500 g/ha [1, 8] [%]	pest or weed control at 500 g/ha [2, 8] [%]	pest or weed control at 500 g/ha [3, 8] [%]	other results
FC(F)(F)c1nccc(-c2ccccc2Oc2ncc(Br)cn2)n1 [Compound 21, 4-[2-[(5-bromo-2-pyrimidinyl)oxy]phenyl]-2-(trifluoromethyl)pyrimidine]	0	30	60	100	20	90	0	0	20	40	0	20				
Cc1ccc(Oc2ncc(Cl)cn2)c(-c2ccc(C(F)(F)F)nc2)c1 [Compound 22, 5-chloro-2-[4-methyl-2-[6-(trifluoromethyl)-3-pyridinyl]phenoxy]pyrimidine]	0	10	0	0	0	10	0	0	50	60	0	0				
Clc1ccc(-c2c(Cl)cccc2Oc2ncc(Cl)cn2)nc1 [Compound 23, 5-chloro-2-[3-chloro-2-(5-chloro-2-pyridinyl)phenoxy]pyrimidine]	10	50	40	80	20	40	0	0	40	70	10	50				pest or weed control at 1000 g/ha [1, 7]: 60%; pest or weed control at 1000 g/ha [1, 9]: 100%; pest or weed control at 1000 g/ha [2, 7]: 70%; pest or weed control at 1000 g/ha [2, 9]: 0%; pest or weed control at 1000 g/ha [3, 7]: 70%; pest or weed control at 1000 g/ha [3, 9]: 80%
Cc1ccc(Oc2ncc(Cl)cn2)c(-c2ccnc(C(F)(F)F)c2)c1 [Compound 24, 5-chloro-2-[4-methyl-2-[2-(trifluoromethyl)-4-pyridinyl]phenoxy]pyrimidine]	80	90	100	100	50	100	0	0	40	70	0	0				
FC(F)(F)c1ccnc(-c2ccccc2Oc2ncc(Cl)cn2)c1 [Compound 25, 5-chloro-2-[2-[4-(trifluoromethyl)-2-pyridinyl]phenoxy]pyrimidine]	10	50	50		10	70	0		20	80	10		100	10	100	
FC(F)(F)c1ccc(-c2ccccc2Oc2ncc(Cl)cn2)nc1 [Compound 27, 5-chloro-2-[2-[5-(trifluoromethyl)-2-pyridinyl]phenoxy]pyrimidine]	20	90	80		10	50	0		70	100	20		100	0	60	
FCc1cc(-c2ccccc2Oc2ncc(Cl)cn2)no1 [Compound 32, 5-chloro-2-[2-[5-(fluoromethyl)-3-isoxazolyl]phenoxy]pyrimidine]	60	90	100		70	90	0		90	100	90		100	30	100	
FC(F)(F)Oc1ccc(-c2ccccc2Oc2ncc(Cl)cn2)cc1 [Compound 42, 5-chloro-2-[[4′-(trifluoromethoxy)[1,1′-biphenyl]-2-yl]oxy]pyrimidine]	30	50	50		20	60	0		100	100	50		90	0	70	
COc1cccc(Oc2ncc(Cl)cn2)c1-c1cc(C(F)(F)F)no1 [Compound 104]																Plant response rating, Blackgrass [4, 10]: 70; Plant response rating, Blackgrass [4, 11]: 100; Plant response rating, Galium [5, 10]: 90; Plant response rating, Galium [5, 11]: 100
N#Cc1cccc(Oc2ncc(Cl)cn2)c1-c1cc(C(F)(F)F)ccn1 [Compound 158, 5-chloro-2-[3-cyano-2-[4-(trifluoromethyl)-2-pyridinyl]phenoxy]pyrimidine]																Plant response rating, Blackgrass [4, 11]: 30; Plant response rating, Blackgrass [4, 12]: 90; Plant response rating, Galium [5, 11]: 30; Plant response rating, Galium [5, 12]: 100
